The target of assay [1] is PI3Kα (p110/p85) kinase (wild type, "WT") (Homo sapiens, UniProt P42336). The experiment in a line: PI3Kα (p110/p85) kinase ADP-Glo Assay. The settings on record: 25 uM ATP. The format is biochemical. The procedure:
PI3Kα (p110/p85) kinase ADP-Glo Assay. Certain compounds disclosed herein were tested for inhibition of PI3Kα (p110/p85) kinase (wild type, “WT”) in assays based on the ADP-Glo™ Kinase Assay methodology. The assays were carried out in 384-well white plates in a reaction mixture containing PI3Kα (p110/p85) kinase, 25 µM ATP, 5.35 µg/mL PI(4,5)P2:PS Lipid Kinase Substrate and […] compound in buffer containing 50 mM HEPES pH7.5, 50 mM NaCl, 3 mM MgCl2, 0.0025% BSA and 2 mM DTT. PI3Kα (p110/p85) kinase was incubated with Lipid Kinase Substrate and compound for 30 minutes at room temperature and the reaction was initiated by the addition of ATP. After reaction at room temperature for 120 minutes, ADP-Glo™ reagents were added to terminate the kinase reaction and deplete the remaining ATP according to the manufacture's instruction (Promega Corporation). After incubation at room temperature for 1 hour, Kinase Detection Reagent (prepared by reconstituting the lyophilized Kinase Detection Substrate with Kinase Detection Buffer of the kit) was added to convert the ADP to ATP and to allow for the newly synthesized ATP to be measured using a luciferase/luciferin reaction. After incubation at room temperature for 0.5 hour, chemiluminescence signals were recorded on a PHERAstar FSX plate reader (BMG Labtech). The chemiluminescence generated in this assay correlates to the amount of ADP generated in the kinase assay, indicating kinase activity. […] The IC50 for each compound was derived from fitting the data to the four-parameter logistic equation by Dotmatics.

The target in assay [2] is PI3Kα (p110[H1047R]/p85) kinase (Homo sapiens, UniProt P42336, H1047R). The experiment in a line: PI3Kα (p110[H1047R]/p85) kinase ADP-Glo Assay. In kind it is biochemical. The settings on record: 25 uM ATP; for selectivity: WT/H1047R: ADP-Glo Assay IC50 ratio. The procedure:
PI3Kα (p110[H1047R]/p85) kinase ADP-Glo Assay. Certain compounds disclosed herein were tested for inhibition of PI3Kα (p110[H1047R]/p85) kinase in assays based on the ADP-Glo™ Kinase Assay methodology. The assays were carried out in 384-well white plates in a reaction mixture containing PI3Kα (p110[H1047R]/p85) kinase, 25 µM ATP, 5.35 µg/ml PI(4,5)P2:PS Lipid Kinase Substrate and […] compound in buffer containing 50 mM HEPES pH7.5, 50 mM NaCl, 3 mM MgCl2, 0.0025% BSA and 2 mM DTT. PI3Kα (p110[H1047R]/p85) kinase was incubated with Lipid Kinase Substrate and compound for 30 minutes at room temperature and the reaction was initiated by the addition of ATP.
After reaction at room temperature for 120 minutes, ADP-Glo™ reagents were added to terminate the kinase reaction and deplete the remaining ATP according to the manufacture's instruction (Promega Corporation). After incubation at room temperature for 1 hour, Kinase Detection Reagent (prepared by reconstituting the lyophilized Kinase Detection Substrate with Kinase Detection Buffer of the kit) was added to convert the ADP to ATP and to allow for the newly synthesized ATP to be measured using a luciferase/luciferin reaction. After incubation at room temperature for 0.5 hour, chemiluminescence signals were recorded on a PHERAstar FSX plate reader (BMG Labtech). The chemiluminescence generated in this assay correlates to the amount of ADP generated in the kinase assay, indicating kinase activity. […] The IC50 for each compound was derived from fitting the data to the four-parameter logistic equation by Dotmatics.

For assay [3], the system named is PI3Kα H1047R mutated cell line T-47D. The experiment in a line: Phospho-AKT (Ser473) Inhibition Assay (HTRF), T-47D. The format is cell-based. To be noted: for IC50: Homo sapiens, T47D, T-47D, 1 hour treatment, read-out: p-AKT Inhibition assay (S473) IC50 T-47D; for Selectivity: SK-BR-3/T-47D (p-AKT): p-AKT (S473) IC50 ratio. The procedure: Cell Culture Maintenance. The T-47D (ATCC, HTB-133) cell line was obtained from the American Type Culture Collection. Cells were maintained in RPMI1640 medium (Gibco, REF #22400105) supplemented with 10% Fetal Bovine Serum (Gibco, REF #10091148). Cultures were maintained in a humidified incubator at 37° C. under 5% CO2/95% air.
(§1) Phospho-AKT Inhibition Assay. HTRF Phospho-AKT (Ser473) detection kit (Cisbio, REF #64AKSPEH) was used in phosphor-AKT inhibition assay. For compound screening, PI3Kα H1047R mutated cell line T-47D and WT cell line SK-BR-3 cells were seeded at a density of 3×10^4 cells per well in 96 well plate (Costar, REF #3599) in 95 μL of assay medium (MEM medium (Gibco, REF #12561-056) with 1×NEAA (Gibco, REF #11140-050), 1 mM sodium pyruvate (Gibco, REF #11360-070), and 1 g/ml human insulin (Topscience, REF #T8221)), overnight. Compounds dissolved in 10 mM stock solutions in DMSO were serially diluted 1:3 in DMSO to generate an 11-point dilution series and plated using an INTEGRA ASSIST PLUS pipetting robot. A 20× intermediate compound dilution plate in RPMI1640 medium (200 M starting compound concentration in 2% DMSO) was then prepared. Five μL of intermediate serially diluted compounds were added to the cell plate to final concentrations ranging from […] to 0.1 nM in 0.1% DMSO. 0.1% DMSO alone was used to establish the maximum signal and GDC0077 at final concentration of 10 μM was used as a reference compound for minimum signal. After 1 hour treatment, removed medium and added 50 μL of supplemented lysis buffer (1×) immediately. Incubated for at least 30 minutes at room temperature under shaking. Transferred 16 μL of cell lysate from the 96-well cell-culture plate to a 384-white detection plate (PerkinElmer, Optiplate 384, 6007299). Added 4 μL of premixed antibody solutions prepared in the detection buffer. Incubated 4 hours at room temperature in dark. The plates were read on PHERAstar FSX Microplate reader (BMG LABTECH, Inc.) using standard HTRF settings.
(§2) Relative IC50 values were determined using luminescence units by calculating percent inhibition with respect to the in-plate “MIN” (GDC0077 reference control) and “MAX” (DMSO) controls. The data were analyzed using a 4-parameter nonlinear logistic equation (four-parameter logistic concentration-response curve): Y=bottom+[(top−bottom)/1+(X/IC50) slope] • where Y=% inhibition, X=concentration of inhibitor, bottom=minimum value of y attained by curve-fit, top=maximum value of y attained by curve-fit and slope=steepness of curve at the IC50.

Another assay deals with WT cell line SK-BR-3. The assay is described as follows: Phospho-AKT (Ser473) Inhibition Assay (HTRF), SK-BR-3. The settings on record: Homo sapiens; SK-BR-3, 1 hour treatment; read-out: p-AKT Inhibition assay (S473) IC50 SK-BR-3. In kind it is cell-based. The procedure:
The SK-BR-3 (ATCC, HTB-30) cell line was obtained from the American Type Culture Collection. Cells were maintained in McCoy' 5A medium (Gibco, REF #16600108) supplemented with 10% Fetal Bovine Serum. Cultures were maintained in a humidified incubator at 37° C. under 5% CO2/95% air.
as §1, §2

A value given as a limit tells only on which side of the number the result lay.

Chain of PI3Kα (p110[H1047R]/p85) kinase (P42336 whole entry H1047R): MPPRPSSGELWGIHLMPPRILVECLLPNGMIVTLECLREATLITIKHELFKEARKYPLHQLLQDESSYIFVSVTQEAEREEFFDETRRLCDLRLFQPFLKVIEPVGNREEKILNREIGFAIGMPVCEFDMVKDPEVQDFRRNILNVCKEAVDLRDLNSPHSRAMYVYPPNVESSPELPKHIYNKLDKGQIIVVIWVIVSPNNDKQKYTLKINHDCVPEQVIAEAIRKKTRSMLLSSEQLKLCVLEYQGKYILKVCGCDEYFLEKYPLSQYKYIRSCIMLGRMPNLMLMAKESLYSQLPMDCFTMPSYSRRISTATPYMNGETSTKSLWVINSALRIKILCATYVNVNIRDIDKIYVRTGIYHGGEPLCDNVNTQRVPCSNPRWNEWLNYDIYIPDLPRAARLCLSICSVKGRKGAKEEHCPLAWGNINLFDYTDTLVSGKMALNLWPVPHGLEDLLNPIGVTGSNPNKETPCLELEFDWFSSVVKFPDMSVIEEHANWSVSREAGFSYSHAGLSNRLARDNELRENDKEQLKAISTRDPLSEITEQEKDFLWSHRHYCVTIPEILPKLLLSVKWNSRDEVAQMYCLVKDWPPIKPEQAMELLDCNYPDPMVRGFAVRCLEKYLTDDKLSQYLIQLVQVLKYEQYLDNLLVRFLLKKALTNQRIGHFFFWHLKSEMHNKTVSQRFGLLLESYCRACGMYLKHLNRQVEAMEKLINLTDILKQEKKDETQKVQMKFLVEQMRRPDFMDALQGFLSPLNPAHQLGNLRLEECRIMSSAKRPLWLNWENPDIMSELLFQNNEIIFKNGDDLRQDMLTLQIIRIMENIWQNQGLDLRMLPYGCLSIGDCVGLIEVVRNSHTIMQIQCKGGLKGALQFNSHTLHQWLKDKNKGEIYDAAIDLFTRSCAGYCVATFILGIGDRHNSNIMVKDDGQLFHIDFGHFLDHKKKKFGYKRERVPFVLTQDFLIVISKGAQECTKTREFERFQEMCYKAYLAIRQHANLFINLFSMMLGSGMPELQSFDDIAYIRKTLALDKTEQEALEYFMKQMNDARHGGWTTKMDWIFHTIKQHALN
Chain of PI3Kα (p110[H1047R]/p85) kinase (P27986 whole entry partner): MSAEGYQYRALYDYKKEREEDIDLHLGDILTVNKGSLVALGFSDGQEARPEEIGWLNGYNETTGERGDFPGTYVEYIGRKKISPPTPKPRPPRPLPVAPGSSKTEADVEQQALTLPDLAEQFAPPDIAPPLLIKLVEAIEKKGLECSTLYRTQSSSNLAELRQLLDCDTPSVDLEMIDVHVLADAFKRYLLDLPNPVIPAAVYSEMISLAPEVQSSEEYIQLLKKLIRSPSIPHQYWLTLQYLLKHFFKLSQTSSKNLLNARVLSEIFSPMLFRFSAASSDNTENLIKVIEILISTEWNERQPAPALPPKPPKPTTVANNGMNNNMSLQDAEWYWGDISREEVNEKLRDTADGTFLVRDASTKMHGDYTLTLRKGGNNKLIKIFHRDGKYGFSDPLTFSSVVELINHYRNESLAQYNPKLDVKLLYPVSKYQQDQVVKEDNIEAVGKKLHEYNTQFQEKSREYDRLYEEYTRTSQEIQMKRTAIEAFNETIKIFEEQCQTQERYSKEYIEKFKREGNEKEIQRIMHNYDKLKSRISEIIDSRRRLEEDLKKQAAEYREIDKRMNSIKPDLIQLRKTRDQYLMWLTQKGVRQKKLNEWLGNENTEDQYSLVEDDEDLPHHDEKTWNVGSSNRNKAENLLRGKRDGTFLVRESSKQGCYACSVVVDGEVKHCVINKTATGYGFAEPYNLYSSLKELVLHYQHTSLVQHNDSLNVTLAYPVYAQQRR
Chain of PI3Kα (p110/p85) kinase (wild type, "WT") (P42336 whole entry): as the sequence (P42336 whole entry H1047R) above, with R1047H counted along it
Chain of PI3Kα (p110/p85) kinase (wild type, "WT") (P27986 whole entry partner): as the sequence (P27986 whole entry partner) above

With `Cc1cc(C(C)Nc2ccccc2C(=O)O)c2cc(C#CC3CCCCC3)n(C)c(=O)c2c1` (stereo not shown) [Example 28, 2-((1-(3-(cyclohexylethynyl)-2,7-dimethyl-1-oxo-1,2-dihydroisoquinolin-5-yl)ethyl)amino)benzoic acid], the half-maximal inhibitory concentration (IC50) in assay [1] is over 100 µM; in assay [2], 0.505 µM; in assay [3], 0.472 µM; in the assay with WT cell line SK-BR-3, 6.43 µM. In addition, the “selectivity: WT/H1047R” value in assay [2] is reported as over 198. In assay [3], the “Selectivity: SK-BR-3/T-47D (p-AKT)” value was found to be 17.
For `Cc1cc(C(C)Nc2ccccc2C(=O)O)c2cc(-c3cnn(-c4cccc(C#N)c4)c3)n(C)c(=O)c2c1` (stereo not shown) [Example 29, 2-((1-(3-(1-(3-cyanophenyl)-1H-pyrazol-4-yl)-2,7-dimethyl-1-oxo-1,2-dihydroisoquinolin-5-yl)ethyl)amino)benzoic acid], the IC50 was determined as 3.8 µM in assay [1], 0.26 µM in assay [2], 0.107 µM in assay [3] and 2.7 µM in the assay with WT cell line SK-BR-3. Further, the “selectivity: WT/H1047R” value in assay [2] is 15. In addition, the “Selectivity: SK-BR-3/T-47D (p-AKT)” value in assay [3] is 25.
Consider `Cc1cc([C@H](C)Nc2ccccc2C(=O)O)c2cc(-c3ccc(-c4cnn(C)c4)cc3)n(C)c(=O)c2c1` [Example 41, (S)-2-((1-(2,7-dimethyl-3-(4-(1-methyl-1H-pyrazol-4-yl)phenyl)-1-oxo-1,2-dihydroisoquinolin-5-yl)ethyl)amino)benzoic acid], for which the concentration for half-maximal inhibition (IC50) in assay [1] was 61 µM; in assay [2] it was 7.18 µM; in assay [3], over 10 µM; in the assay on WT cell line SK-BR-3, 3.23 µM. For the same molecule, in assay [2], the “selectivity: WT/H1047R” value was found to be 8.5.
As for `Cc1cc(C(C)Nc2c(C(=O)O)nn3c2CCC3)c2cc(-c3ccccc3)n(C)c(=O)c2c1` (stereo not shown) [Example 83, 3-((1-(2,7-dimethyl-1-oxo-3-phenyl-1,2-dihydroisoquinolin-5-yl)ethyl)amino)-5,6-dihydro-4H-pyrrolo[1,2-b]pyrazole-2-carboxylic acid], the IC50 was 55.5 µM in assay [1], 0.485 µM in assay [2], 6.75 µM in assay [3] and over 10 µM in the assay on WT cell line SK-BR-3. Besides, the “selectivity: WT/H1047R” value in assay [2] is on record as 114.5. Further, in assay [3], the “Selectivity: SK-BR-3/T-47D (p-AKT)” value is reported as over 1.48.
For the molecule `Cc1cc(C(C)Nc2ccccc2C(=O)O)c2cc(-c3cnc(O)nc3)n(C)c(=O)c2c1` (stereo not shown) [Example 85, 2-((1-(3-(2-hydroxypyrimidin-5-yl)-2,7-dimethyl-1-oxo-1,2-dihydroisoquinolin-5-yl)ethyl)amino)benzoic acid], the IC50 in assay [1] is 26.8 µM; in assay [2], 1.1 µM; in assay [3], over 10 µM; in the assay on WT cell line SK-BR-3 it was over 10 µM. Further, the “selectivity: WT/H1047R” value in assay [2] came out at 24.3.

The values are drawn from US20260125346A1, “Isoquinolinone Derivatives and 4H-Quinolizinone Derivatives and Pharmaceutical Compositions Thereof for the Treatment of Disease” (BeOne Medicines I GmbH, priority 2023, published 2026).
